Results as given in patent US11365196B2, “FGFR inhibitor and application thereof” (Betta Pharmaceuticals Co., Ltd., priority 2017, dated 2022).
Where two headings read alike, the source gives them in different places.

Assays:
NCI-H1581 cells = assay: Cell proliferation assay on NCI-H1581 (Table 7); assay type: cell-based, human; conditions: Homo sapiens
Excerpt: (§1) Test method: adding the appropriate volume of whole medium and the cells was suspended.

SNU-16 cells = assay: Cell proliferation assay on SNU-16, CellTiter Glo (Table 8); assay type: cell-based, human; conditions: Homo sapiens, SNU-16, 96 hrs, class symbols, read-out: IC50(nM) value of compounds on SNU-16 cells
Excerpt: as §1

FGFR1 = FGFR1 (Homo sapiens (Human), UniProt P11362); assay: Kinase assay Method 1, mobility shift assay; conditions: read-out: IC50(nM) value of compounds FGFR1; mobility shift assay, ATP at Km; class symbols
Procedure: Method 1: The inhibitory activity of some compounds of the present disclosure against FGFR1, FGFR2, FGFR3, FGFR4, KDR was tested by mobility shift assay (concentration of ATP is Km value).
Preparing of compounds: dilute test compounds to specific concentration using 100% DMSO

FGFR4 = FGFR4 (Homo sapiens (Human), UniProt P22455); assay: Kinase assay Method 1, mobility shift assay; assay type: biochemical; conditions: ATP at Km, numeric values, read-out: IC50(nM) value of compounds FGFR4
[1] = NCI-H1581, read-out: IC50(nM) value of compounds on NCI-H1581 cells
[2] = NCI-H1581, CellTiter 96 AQueous (144 hrs) or CellTiter Glo (96 hrs), class symbols, read-out: IC50(nM) value of compounds on NCI-H1581 cells

Chain of FGFR4 (P22455 22-802): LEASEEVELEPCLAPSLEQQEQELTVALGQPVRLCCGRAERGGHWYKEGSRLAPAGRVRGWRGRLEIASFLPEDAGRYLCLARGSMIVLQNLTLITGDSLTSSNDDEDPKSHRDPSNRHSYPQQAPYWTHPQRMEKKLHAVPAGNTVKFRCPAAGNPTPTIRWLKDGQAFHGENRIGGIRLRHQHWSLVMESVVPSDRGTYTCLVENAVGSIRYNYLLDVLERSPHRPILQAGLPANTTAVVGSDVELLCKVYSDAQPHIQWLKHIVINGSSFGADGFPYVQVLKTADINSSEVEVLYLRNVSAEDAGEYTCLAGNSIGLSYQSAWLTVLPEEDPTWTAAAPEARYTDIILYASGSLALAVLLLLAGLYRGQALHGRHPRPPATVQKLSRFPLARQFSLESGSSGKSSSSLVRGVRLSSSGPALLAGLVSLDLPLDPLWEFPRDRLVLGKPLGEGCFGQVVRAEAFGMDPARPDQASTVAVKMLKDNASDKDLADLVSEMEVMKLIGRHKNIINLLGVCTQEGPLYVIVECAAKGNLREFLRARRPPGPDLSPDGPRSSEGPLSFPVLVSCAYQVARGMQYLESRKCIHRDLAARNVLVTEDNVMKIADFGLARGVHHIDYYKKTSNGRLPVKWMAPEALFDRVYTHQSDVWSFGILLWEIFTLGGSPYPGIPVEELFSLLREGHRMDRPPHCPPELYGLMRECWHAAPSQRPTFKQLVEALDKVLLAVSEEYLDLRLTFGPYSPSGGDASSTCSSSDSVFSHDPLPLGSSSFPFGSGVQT
Chain of FGFR1 (P11362 22-822): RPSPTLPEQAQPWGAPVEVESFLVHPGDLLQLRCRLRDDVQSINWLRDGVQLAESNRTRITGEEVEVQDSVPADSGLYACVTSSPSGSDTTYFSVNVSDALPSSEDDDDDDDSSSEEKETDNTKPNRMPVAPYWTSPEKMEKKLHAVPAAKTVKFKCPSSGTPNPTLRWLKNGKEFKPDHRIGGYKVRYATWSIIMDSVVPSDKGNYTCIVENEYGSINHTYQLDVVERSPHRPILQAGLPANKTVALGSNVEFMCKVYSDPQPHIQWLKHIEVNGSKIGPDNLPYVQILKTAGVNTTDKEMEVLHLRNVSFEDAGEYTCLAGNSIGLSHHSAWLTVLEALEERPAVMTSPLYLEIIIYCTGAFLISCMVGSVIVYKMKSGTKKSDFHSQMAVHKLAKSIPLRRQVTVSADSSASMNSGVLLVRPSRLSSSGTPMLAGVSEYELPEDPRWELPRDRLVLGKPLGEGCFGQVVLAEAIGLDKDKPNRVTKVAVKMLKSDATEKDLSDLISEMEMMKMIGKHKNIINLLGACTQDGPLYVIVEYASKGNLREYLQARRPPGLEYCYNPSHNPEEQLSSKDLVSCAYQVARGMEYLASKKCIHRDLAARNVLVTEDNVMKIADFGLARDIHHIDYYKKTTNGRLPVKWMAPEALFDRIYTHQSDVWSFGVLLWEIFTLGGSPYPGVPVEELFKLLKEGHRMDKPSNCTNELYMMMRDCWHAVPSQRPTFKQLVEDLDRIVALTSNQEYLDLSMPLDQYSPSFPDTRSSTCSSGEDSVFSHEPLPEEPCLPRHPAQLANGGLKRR

Row | IC50 (SNU-16 cells) | IC50 (NCI-H1581 cells; [2]) | IC50 (FGFR1) | SMILES | IC50 (NCI-H1581 cells; [1]) | IC50 (FGFR4)
1 | 1 to 10 nM |  |  | C=CC(=O)N1CCC2(CC1)CN(CCCc1nc3c(-c4c(Cl)c(OC)cc(OC)c4Cl)cc4cnc(NC)nc4n3n1)C2 [Compound 138, 1-(2-(3-(4-(2,6-dichloro-3,5-dimethoxyphenyl)-8-(methylamino)-[1,2,4]triazolo[1′,5′:1,6]pyrido[2,3-d]pyrimidin-2-yl)propyl)-2,7-diazaspiro[3.5]nonan-7-yl)prop-2-en-1-one] |  | 
2 | 1 to 10 nM | 1 to 10 nM | < 1 nM | Cc1nc2cc(Cl)c(-c3cc4cnc(Nc5ccc(N6CCN7CCC[C@@H]7C6)cc5)nc4n4cnnc34)cc2[nH]1 [Compound 84] |  | 
3 | 10 to 100 nM | 10 to 100 nM |  | CNc1ncc2cc(-c3c(Cl)c(OC)cc(OC)c3Cl)c3nc(CCCN4CCN(C(=O)C(C#N)=CC(C)C)CC4)nn3c2n1 [Compound 147, 2-(4-(3-(4-(2,6-dichloro-3,5-dimethoxyphenyl)-8-(methylamino)-[1,2,4]triazolo[1′,5′:1,6]pyrido[2,3-d]pyrimidin-2-yl)propyl)piperazine-1-carbonyl)-4-methylpent-2-enenitrile] |  | 
4 |  |  |  | COc1cc(OC)c(Cl)c(-c2cc3cnc(Nc4ccc(N5CCC(N6CCOCC6)CC5)cc4)nc3n3cnnc23)c1Cl [Compound 65, 6-(2,6-dichloro-3,5-dimethoxyphenyl)-N-(4-(4-morpholinopiperidin-1-yl)phenyl)-[1,2,4]triazolo[4′,3′:1,6]pyrido[2,3-d]pyrimidin-2-amine] | 0.6 nM | 6.7 nM
5 |  |  |  | Cc1nc2cc(Cl)c(-c3cc4cnc(Nc5ccc(N6CCOCC6)cc5)nc4n4cnnc34)cc2[nH]1 [Compound 81, 6-(5-chloro-2-methyl-1H-benzo[d]imidazol-6-yl)-N-(4-morpholinophenyl)-[1,2,4]triazolo[4′,3′:1,6]pyrido[2,3-d]pyrimidin-2-amine] | 9.3 nM | 191 nM
6 |  |  |  | COc1cc(OC)c(Cl)c(-c2cc3cnc(Nc4ccc5c(c4)CCNC5)nc3n3cnnc23)c1 [Compound 53, 6-(2-chloro-3,5-dimethoxyphenyl)-N-(1,2,3,4-tetrahydroisoquinolin-6-yl)-[1,2,4]triazolo[4′,3′:1,6]pyrido[2,3-d]pyrimidin-2-amine] | 0.7 nM | 14 nM
7 |  |  |  | COc1cc(OC)c(Cl)c(-c2cc3cnc(Nc4ccc(CN5CCN(C)CC5)cc4)nc3n3cnnc23)c1 [Compound 46, 6-(2-chloro-3,5-dimethoxyphenyl)-N-(4-((4-methylpiperazin-1-yl)methyl)phenyl)-[1,2,4]triazolo[4′,3′:1,6]pyrido[2,3-d]pyrimidin-2-amine] | 2.4 nM | 56 nM
8 |  |  |  | CCN1CCN(c2ccc(Nc3ncc4cc(-c5cc6[nH]c(C)nc6cc5Cl)c5nncn5c4n3)cc2)CC1 [Compound 67, 6-(5-chloro-2-methyl-1H-benzo[d]imidazol-6-yl)-N-(4-(4-ethylpiperazin-1-yl)phenyl)-[1,2,4]triazolo[4′,3′:1,6]pyrido[2,3-d]pyrimidin-2-amine] | 1 to 10 nM | 90 nM

Row | SMILES | IC50 (SNU-16 cells) | IC50 (NCI-H1581 cells; [2]) | IC50 (FGFR1) | IC50 (NCI-H1581 cells; [1]) | IC50 (FGFR4)
9 | COc1cc(OC)c(Cl)c(-c2cc3cnc(Nc4ccc(N5CCC(N6CCOCC6)CC5)cc4)nc3n3cnnc23)c1 [Compound 29, 6-(2-chloro-3,5-dimethoxyphenyl)-N-(4-(4-morpholinopiperidin-1-yl)phenyl)-[1,2,4]triazolo[4′,3′:1,6]pyrido[2,3-d]pyrimidin-2-amine] | < 1 nM |  |  | 2 nM | 
10 | COc1cc(OC)c(Cl)c(-c2cc3cnc(Nc4ccc(N5CCN6CCOC[C@H]6C5)cc4)nc3n3cnnc23)c1 [Compound 43, (R)-6-(2-chloro-3,5-dimethoxyphenyl)-N-(4-(hexahydropyrazino[2,1-c][1,4]oxazin-8(1H)-yl)phenyl)-[1,2,4]triazolo[4′,3′:1,6]pyrido[2,3-d]pyrimidin-2-amine] | < 1 nM |  |  | 1 to 10 nM | 
